# Data taken from ChEMBL document CHEMBL1201862, “PubChem BioAssay data set” (2004).
#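 All cell lines were grown in 96-well plates and treated with compound for 48 hours. GI50 marks 50% less growth.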 Calls of active or inactive are those of the source. Rule as the data show it: active = GI50 up to about 1.1 µM and inactive = higher.
# Assays:
# Test in all cases: NCI anticancer screen, dose series, 48 h
# CCRF-CEM = test system: CCRF-CEM
# MDA-N = test system: MDA-N
# SK-MEL-28 = test system: SK-MEL-28
# HCT-15 = test system: HCT-15
# Malme-3M = test system: Malme-3M
# KM-20L2 = test system: KM-20L2
# A549 = test system: A549
# UACC-257 = test system: UACC-257
# OVCAR-4 = test system: OVCAR-4
# SK-OV-3 = test system: SK-OV-3
# SW-620 = test system: SW-620
# SF-539 = test system: SF-539
# SF-295 = test system: SF-295
# COLO 205 = test system: COLO 205
# HT-29 = test system: HT-29
# HCT-116 = test system: HCT-116
# RXF 393 = test system: RXF 393
# HOP-62 = test system: HOP-62
# TK-10 = test system: TK-10
# SNB-75 = test system: SNB-75
# EKVX = test system: EKVX
# SNB-19 = test system: SNB-19
# 786-0 = test system: 786-0
# LXFL 529 = test system: LXFL 529
# NCI-H226 = test system: NCI-H226
# U-251 = test system: U-251
# CAKI-1 = test system: CAKI-1
# UO-31 = test system: UO-31
# OVCAR-5 = test system: OVCAR-5
# T47D = test system: T47D
# HL-60 = test system: HL-60
# ACHN = test system: ACHN
# KM12 = test system: KM12
# SK-MEL-2 = test system: SK-MEL-2
# DU-145 = test system: DU-145
# DMS-273 = test system: DMS-273
# K562 = test system: K562
# HOP-92 = test system: HOP-92
# SR = test system: SR
# NCI-H23 = test system: NCI-H23
# NCI-H522 = test system: NCI-H522
# IGROV-1 = test system: IGROV-1
# M19-MEL = test system: M19-MEL
# DLD-1 = test system: DLD-1
# HCC 2998 = test system: HCC 2998
# M14 = test system: M14
# OVCAR-3 = test system: OVCAR-3
# RPMI-8226 = test system: RPMI-8226
# HOP-18 = test system: HOP-18
# MCF7 = test system: MCF7
# SK-MEL-5 = test system: SK-MEL-5
# MOLT-4 = test system: MOLT-4
# UACC-62 = test system: UACC-62
# Hs-578T = test system: Hs-578T
# OVCAR-8 = test system: OVCAR-8
# NCI-H460 = test system: NCI-H460
# RXF 631 = test system: RXF 631
# PC-3 = test system: PC-3
# DMS-114 = test system: DMS-114
# SF-268 = test system: SF-268
# NCI/ADR-RES = test system: NCI/ADR-RES
# A498 = test system: A498
# LOX IMVI = test system: LOX IMVI
smiles,measurement,setting,value
Nc1ccccc1C(=O)CCC1C(=O)NC(=S)NC1=O,GI50,CCRF-CEM,> 100 µM (inactive)
same,GI50,MDA-N,> 100 µM (inactive)
same,GI50,SK-MEL-28,> 100 µM (inactive)
same,GI50,HCT-15,> 100 µM
same,GI50,Malme-3M,> 100 µM (inactive)
same,GI50,KM-20L2,> 100 µM (inactive)
same,GI50,A549,> 100 µM (inactive)
same,GI50,UACC-257,> 100 µM (inactive)
same,GI50,OVCAR-4,> 100 µM (inactive)
same,GI50,SK-OV-3,> 100 µM (inactive)
same,GI50,SW-620,> 100 µM (inactive)
same,GI50,SF-539,> 100 µM (inactive)
same,GI50,SF-295,> 100 µM (inactive)
same,GI50,COLO 205,> 100 µM (inactive)
same,GI50,HT-29,> 100 µM (inactive)
same,GI50,HCT-116,> 100 µM (inactive)
same,GI50,RXF 393,> 100 µM (inactive)
same,GI50,HOP-62,> 100 µM (inactive)
same,GI50,TK-10,> 100 µM (inactive)
same,GI50,SNB-75,43.8 µM (inactive)
same,GI50,EKVX,> 100 µM (inactive)
same,GI50,SNB-19,> 100 µM (inactive)
same,GI50,786-0,> 100 µM (inactive)
same,GI50,LXFL 529,> 100 µM (inactive)
same,GI50,NCI-H226,> 100 µM (inactive)
same,GI50,U-251,> 100 µM (inactive)
same,GI50,CAKI-1,> 100 µM (inactive)
same,GI50,UO-31,> 100 µM (inactive)
same,GI50,OVCAR-5,> 100 µM (inactive)
same,GI50,T47D,> 100 µM (inactive)
same,GI50,HL-60,> 100 µM (inactive)
same,GI50,ACHN,> 100 µM (inactive)
same,GI50,KM12,> 100 µM (inactive)
same,GI50,SK-MEL-2,> 100 µM (inactive)
same,GI50,DU-145,> 100 µM (inactive)
same,GI50,DMS-273,> 100 µM (inactive)
same,GI50,K562,> 100 µM (inactive)
same,GI50,HOP-92,> 91.4 µM (inactive)
same,GI50,SR,> 100 µM (inactive)
same,GI50,NCI-H23,> 100 µM (inactive)
same,GI50,NCI-H522,> 100 µM (inactive)
same,GI50,IGROV-1,> 100 µM (inactive)
same,GI50,M19-MEL,> 100 µM (inactive)
same,GI50,DLD-1,> 100 µM (inactive)
same,GI50,HCC 2998,> 100 µM (inactive)
same,GI50,M14,> 100 µM (inactive)
same,GI50,OVCAR-3,> 100 µM (inactive)
same,GI50,RPMI-8226,> 100 µM (inactive)
same,GI50,HOP-18,> 100 µM (inactive)
same,GI50,MCF7,> 100 µM (inactive)
same,GI50,SK-MEL-5,> 100 µM (inactive)
same,GI50,MOLT-4,> 100 µM (inactive)
same,GI50,UACC-62,> 100 µM (inactive)
same,GI50,Hs-578T,> 100 µM (inactive)
same,GI50,OVCAR-8,> 100 µM (inactive)
same,GI50,NCI-H460,> 100 µM (inactive)
same,GI50,RXF 631,> 100 µM (inactive)
same,GI50,PC-3,> 100 µM (inactive)
same,GI50,DMS-114,> 100 µM (inactive)
same,GI50,SF-268,> 100 µM (inactive)
same,GI50,NCI/ADR-RES,> 100 µM (inactive)
same,GI50,A498,> 100 µM (inactive)
same,GI50,LOX IMVI,> 100 µM (inactive)
c1ccc2c(c1)oc1ccc3nsnc3c12,GI50,CCRF-CEM,> 100 µM (inactive)
same,GI50,SK-MEL-28,> 100 µM (inactive)
same,GI50,HCT-15,> 100 µM
same,GI50,Malme-3M,> 100 µM (inactive)
same,GI50,KM-20L2,> 100 µM (inactive)
same,GI50,A549,> 100 µM (inactive)
same,GI50,UACC-257,> 100 µM (inactive)
same,GI50,OVCAR-4,> 100 µM (inactive)
same,GI50,SK-OV-3,> 100 µM (inactive)
same,GI50,SW-620,> 100 µM (inactive)
same,GI50,SF-539,> 100 µM (inactive)
same,GI50,SF-295,> 100 µM (inactive)
same,GI50,COLO 205,> 100 µM (inactive)
same,GI50,HT-29,> 100 µM (inactive)
same,GI50,HCT-116,> 100 µM (inactive)
same,GI50,RXF 393,71 µM (inactive)
same,GI50,TK-10,> 10 µM (inactive)
same,GI50,SNB-75,53.3 µM (inactive)
same,GI50,EKVX,31.3 µM (inactive)
same,GI50,SNB-19,> 100 µM (inactive)
same,GI50,786-0,> 100 µM (inactive)
same,GI50,LXFL 529,> 100 µM (inactive)
same,GI50,NCI-H226,51.6 µM (inactive)
same,GI50,CAKI-1,> 100 µM (inactive)
same,GI50,UO-31,> 100 µM (inactive)
same,GI50,OVCAR-5,> 100 µM (inactive)
same,GI50,HL-60,> 100 µM (inactive)
same,GI50,ACHN,> 100 µM (inactive)
same,GI50,KM12,56 µM (inactive)
same,GI50,SK-MEL-2,> 100 µM (inactive)
same,GI50,DMS-273,> 100 µM (inactive)
same,GI50,K562,> 100 µM (inactive)
same,GI50,HOP-92,45.7 µM (inactive)
same,GI50,SR,> 100 µM (inactive)
same,GI50,NCI-H23,> 100 µM (inactive)
same,GI50,NCI-H522,> 100 µM (inactive)
same,GI50,IGROV-1,> 100 µM (inactive)
same,GI50,M19-MEL,> 100 µM (inactive)
same,GI50,DLD-1,> 100 µM (inactive)
same,GI50,HCC 2998,> 100 µM (inactive)
same,GI50,M14,> 100 µM (inactive)
same,GI50,OVCAR-3,> 100 µM (inactive)
same,GI50,HOP-18,> 100 µM (inactive)
same,GI50,SK-MEL-5,> 100 µM (inactive)
same,GI50,MOLT-4,> 100 µM (inactive)
same,GI50,UACC-62,> 100 µM (inactive)
same,GI50,NCI-H460,> 10 µM (inactive)
same,GI50,RXF 631,46.9 µM (inactive)
same,GI50,DMS-114,> 100 µM (inactive)
same,GI50,SF-268,> 100 µM (inactive)
same,GI50,A498,63.4 µM (inactive)
same,GI50,LOX IMVI,> 10 µM (inactive)
